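Interpolation was linear, between the two tested concentrations surrounding the appropriate level; five concentrations were tested over 48 hours in 96-well plates. GI50: concentration for 50% inhibition of growth.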 Active and inactive are the calls of the source. No stated cut-off is given here; in the data, active = GI50 up to about 1.1 µM and inactive = higher.
Legend:
Assay in all cases: NCI anticancer screen, dose series, 48 h
PC-3 = system: PC-3
SN12C = system: SN12C
NCI-H23 = system: NCI-H23
T47D = system: T47D
SK-OV-3 = system: SK-OV-3
HCC 2998 = system: HCC 2998
MOLT-4 = system: MOLT-4
SF-295 = system: SF-295
786-0 = system: 786-0
MCF7 = system: MCF7
UACC-62 = system: UACC-62
HL-60 = system: HL-60
UO-31 = system: UO-31
Malme-3M = system: Malme-3M
ACHN = system: ACHN
SNB-75 = system: SNB-75
LOX IMVI = system: LOX IMVI
NCI-H460 = system: NCI-H460
NCI-H522 = system: NCI-H522
SNB-19 = system: SNB-19

C[C@@H]1CCC2[C@@H](C)[C@H](O[C@H]3O[C@@H]4O[C@@]5(C)CCC6[C@H](C)CCC([C@H]3C)[C@]64OO5)O[C@@H]3O[C@@]4(C)CCC1[C@@]23OO4 (stereo not given in full)
GI50 (PC-3): 0.0148 µM (active)
GI50 (SN12C): 0.186 µM (active)
GI50 (NCI-H23): 0.0415 µM (active)
GI50 (T47D): 0.0293 µM (active)
GI50 (SK-OV-3): 0.452 µM (active)
GI50 (HCC 2998): 0.813 µM (active)
GI50 (MOLT-4): 0.0546 µM (active)
GI50 (SF-295): 0.32 µM (active)
GI50 (786-0): 0.361 µM (active)
GI50 (MCF7): 0.0925 µM (active)
GI50 (UACC-62): 0.0805 µM (active)
GI50 (HL-60): 0.0243 µM (active)
GI50 (UO-31): 0.0559 µM (active)
GI50 (Malme-3M): 0.635 µM (active)
GI50 (ACHN): 0.0953 µM (active)
GI50 (SNB-75): 0.188 µM (active)
GI50 (LOX IMVI): 0.0258 µM (active)
GI50 (NCI-H460): 0.0675 µM (active)
GI50 (NCI-H522): 0.0577 µM (active)
GI50 (SNB-19): 3.17 µM (inactive)

CC1CCCCCC(=O)c2c(O)cc(O)cc2CC(=O)O1 (stereo not given) [CURVULARIN]
GI50 (PC-3): 66.8 µM (inactive)
GI50 (SN12C): > 100 µM (inactive)
GI50 (NCI-H23): 48.9 µM (inactive)
GI50 (T47D): 59.2 µM (inactive)
GI50 (SK-OV-3): > 100 µM (inactive)
GI50 (HCC 2998): > 100 µM (inactive)
GI50 (MOLT-4): 73.8 µM (inactive)
GI50 (SF-295): 94.8 µM (inactive)
GI50 (786-0): > 100 µM (inactive)
GI50 (MCF7): > 100 µM (inactive)
GI50 (UACC-62): > 100 µM (inactive)
GI50 (HL-60): 54.3 µM (inactive)
GI50 (UO-31): 45 µM (inactive)
GI50 (Malme-3M): > 100 µM (inactive)
GI50 (ACHN): > 100 µM (inactive)
GI50 (SNB-75): 57.4 µM (inactive)
GI50 (LOX IMVI): 43.9 µM (inactive)
GI50 (NCI-H460): 98.2 µM (inactive)
GI50 (NCI-H522): > 100 µM (inactive)
GI50 (SNB-19): > 100 µM (inactive)

Cn1c2ccccc2c(=NNc2cccc(C(=O)O)c2)c2ccccc21
GI50 (PC-3): 4.92 µM (inactive)
GI50 (SN12C): 6.55 µM (inactive)
GI50 (NCI-H23): 9.95 µM (inactive)
GI50 (T47D): 5.79 µM (inactive)
GI50 (SK-OV-3): 14.8 µM (inactive)
GI50 (HCC 2998): 3.3 µM (inactive)
GI50 (MOLT-4): 3.97 µM (inactive)
GI50 (SF-295): 16 µM (inactive)
GI50 (786-0): 9.79 µM (inactive)
GI50 (MCF7): 3.4 µM (inactive)
GI50 (UACC-62): 16.9 µM (inactive)
GI50 (HL-60): 11.3 µM (inactive)
GI50 (UO-31): 14.3 µM (inactive)
GI50 (Malme-3M): 20.1 µM (inactive)
GI50 (ACHN): 5.85 µM (inactive)
GI50 (SNB-75): 23.9 µM (inactive)
GI50 (LOX IMVI): 5.05 µM (inactive)
GI50 (NCI-H460): 4.86 µM (inactive)
GI50 (NCI-H522): 5.05 µM (inactive)
GI50 (SNB-19): 6.84 µM (inactive)

CSC1=C(SC)SC(=C2SC3=C(SC(=C4SCCS4)S3)S2)S1
GI50 (PC-3): > 100 µM (inactive)
GI50 (SN12C): > 100 µM (inactive)
GI50 (NCI-H23): > 100 µM (inactive)
GI50 (T47D): > 100 µM (inactive)
GI50 (SK-OV-3): > 100 µM (inactive)
GI50 (HCC 2998): > 100 µM (inactive)
GI50 (MOLT-4): > 100 µM (inactive)
GI50 (SF-295): > 100 µM (inactive)
GI50 (786-0): > 100 µM (inactive)
GI50 (MCF7): > 100 µM (inactive)
GI50 (UACC-62): > 100 µM (inactive)
GI50 (HL-60): > 100 µM (inactive)
GI50 (UO-31): > 100 µM (inactive)
GI50 (Malme-3M): > 100 µM (inactive)
GI50 (ACHN): > 100 µM (inactive)
GI50 (SNB-75): > 100 µM (inactive)
GI50 (LOX IMVI): > 100 µM (inactive)
GI50 (NCI-H460): > 100 µM (inactive)
GI50 (NCI-H522): > 100 µM (inactive)
GI50 (SNB-19): > 100 µM (inactive)

— ChEMBL document CHEMBL1201862, “PubChem BioAssay data set” (2004)
